How the values were obtained:
barnyard grass [1] = experiment: Test Example 3: herbicidal effect by foliage application, Wagner pot (Table 18, symbol H); type: in vivo, barnyard grass (Echinochloa crus-galli); conditions: 320 g/ha
Outline: (§1)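 Plants were sown in alluvial soil held under 0.1–0.5 cm standing water and grown 14 days in a greenhouse at 25–30 °C. An emulsifiable formulation, water-diluted to the set dose, was then sprayed onto the foliage, and effects were scored three weeks later using previously defined criteria.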

Chinese sprangletop = experiment: Test Example 3: herbicidal effect by foliage application, Wagner pot (Table 18, symbol D); type: in vivo, chinese sprangletop (Leptochloa chinensis); conditions: 320 g/ha
Outline: as §1

rice flat sedge = experiment: Test Example 3: herbicidal effect by foliage application, Wagner pot (Table 18, symbol E); type: in vivo, rice flat sedge (Cyperus iria); conditions: 320 g/ha
Outline: as §1

southern crabgrass [2] = experiment: Test Example 4: herbicidal effect by soil treatment (Table 19, symbol F); type: in vivo, southern crabgrass (Digitaria ciliaris); conditions: 320 g/ha
Outline: (§2)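 Scoring uses the grading scale of an earlier test, three weeks post-application. Treatment consists of spraying a diluted emulsion formulation across the surface of sterilized diluvial soil in which seeds are buried near 1.5 cm deep; boxes are kept in a greenhouse between 25° C. and 30° C.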

green foxtail [3] = experiment: Test Example 4: herbicidal effect by soil treatment (Table 19, symbol G); type: in vivo, green foxtail (Setaria viridis); conditions: 320 g/ha
Outline: as §2

barnyard grass [4] = experiment: Test Example 4: herbicidal effect by soil treatment (Table 19, symbol H); type: in vivo, barnyard grass (Echinochloa crus-galli); conditions: 320 g/ha
Outline: as §2

wild oat [5] = experiment: Test Example 4: herbicidal effect by soil treatment (Table 19, symbol I); type: in vivo, wild oat (Avena fatua); conditions: 320 g/ha
Outline: as §2

blackgrass [6] = experiment: Test Example 4: herbicidal effect by soil treatment (Table 19, symbol J); type: in vivo, blackgrass (Alopecurus myosuroides); conditions: 320 g/ha
Outline: as §2

Italian ryegrass [7] = experiment: Test Example 4: herbicidal effect by soil treatment (Table 19, symbol K); type: in vivo, Italian ryegrass (Lolium multiflorum); conditions: 320 g/ha
Outline: as §2

windgrass [8] = experiment: Test Example 4: herbicidal effect by soil treatment (Table 19, symbol L); type: in vivo, windgrass (Apera spica-venti); conditions: 320 g/ha
Outline: as §2

velvetleaf [9] = experiment: Test Example 4: herbicidal effect by soil treatment (Table 19, symbol M); type: in vivo, velvetleaf (Abutilon theophrasti); conditions: 320 g/ha
Outline: as §2

redroot pigweed = experiment: Test Example 4: herbicidal effect by soil treatment (Table 19, symbol N); type: in vivo, redroot pigweed (Amaranthus retroflexus); conditions: 320 g/ha
Outline: as §2

lambsquarters [10] = experiment: Test Example 4: herbicidal effect by soil treatment (Table 19, symbol O); type: in vivo, lambsquarters (Chenopodium album); conditions: 320 g/ha
Outline: as §2

chickweed = experiment: Test Example 4: herbicidal effect by soil treatment (Table 19, symbol P); type: in vivo, common chickweed (Stellaria media); conditions: 320 g/ha
Outline: as §2

persian speedwell [11] = experiment: Test Example 4: herbicidal effect by soil treatment (Table 19, symbol R); type: in vivo, Persian speedwell (Veronica persica); conditions: 320 g/ha
Outline: as §2

southern crabgrass [12] = experiment: Test Example 5: herbicidal effect by foliage application, plastic box (Table 20, symbol F); type: in vivo, southern crabgrass (Digitaria ciliaris); conditions: foliage application, 320 g/ha, 3 weeks after application
Outline: (§3)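 Post-emergence foliar test in sterilized diluvial soil. Compound applied as water-diluted emulsion at a predetermined rate to 14-day-old plants; evaluation at three weeks.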

green foxtail [13] = experiment: Test Example 5: herbicidal effect by foliage application, plastic box (Table 20, symbol G); type: in vivo, green foxtail (Setaria viridis); conditions: foliage application, 320 g/ha, 3 weeks after application
Outline: as §3

barnyard grass [14] = experiment: Test Example 5: herbicidal effect by foliage application, plastic box (Table 20, symbol H); type: in vivo, barnyard grass (Echinochloa crus-galli); conditions: foliage application, 320 g/ha, 3 weeks after application
Outline: as §3

wild oat [15] = experiment: Test Example 5: herbicidal effect by foliage application, plastic box (Table 20, symbol I); type: in vivo, wild oat (Avena fatua); conditions: foliage application, 320 g/ha, 3 weeks after application
Outline: as §3

blackgrass [16] = experiment: Test Example 5: herbicidal effect by foliage application, plastic box (Table 20, symbol J); type: in vivo, blackgrass (Alopecurus myosuroides); conditions: foliage application, 320 g/ha, 3 weeks after application
Outline: as §3

Italian ryegrass [17] = experiment: Test Example 5: herbicidal effect by foliage application, plastic box (Table 20, symbol K); type: in vivo, Italian ryegrass (Lolium multiflorum); conditions: foliage application, 320 g/ha, 3 weeks after application
Outline: as §3

windgrass [18] = experiment: Test Example 5: herbicidal effect by foliage application, plastic box (Table 20, symbol L); type: in vivo, windgrass (Apera spica-venti); conditions: foliage application, 320 g/ha, 3 weeks after application
Outline: as §3

velvetleaf [19] = experiment: Test Example 5: herbicidal effect by foliage application, plastic box (Table 20, symbol M); type: in vivo, velvetleaf (Abutilon theophrasti); conditions: foliage application, 320 g/ha, 3 weeks after application
Outline: as §3

lambsquarters [20] = experiment: Test Example 5: herbicidal effect by foliage application, plastic box (Table 20, symbol O); type: in vivo, lambsquarters (Chenopodium album); conditions: foliage application, 320 g/ha, 3 weeks after application
Outline: as §3

persian speedwell [21] = experiment: Test Example 5: herbicidal effect by foliage application, plastic box (Table 20, symbol R); type: in vivo, Persian speedwell (Veronica persica); conditions: foliage application, 320 g/ha, 3 weeks after application
Outline: as §3

Row | SMILES | herbicidal effect on H (barnyard grass), rating 0-5 (barnyard grass [1]) | herbicidal effect on D (Chinese sprangletop), rating 0-5 (Chinese sprangletop) | herbicidal effect on E (rice flat sedge), rating 0-5 (rice flat sedge) | herbicidal effect rating, F: southern crabgrass (southern crabgrass [2]) | herbicidal effect rating, G: green foxtail (green foxtail [3]) | herbicidal effect rating, H: barnyard grass (barnyard grass [4]) | herbicidal effect rating, I: wild oat (wild oat [5]) | herbicidal effect rating, J: blackgrass (blackgrass [6]) | herbicidal effect rating, K: Italian ryegrass (Italian ryegrass [7]) | herbicidal effect rating, L: windgrass (windgrass [8]) | herbicidal effect rating, M: velvetleaf (velvetleaf [9]) | herbicidal effect rating, N: redroot pigweed (redroot pigweed) | herbicidal effect rating, O: lambsquarters (lambsquarters [10]) | herbicidal effect rating, P: chickweed (chickweed) | herbicidal effect rating, R: persian speedwell (persian speedwell [11]) | effect on southern crabgrass (F) (southern crabgrass [12]) | effect on green foxtail (G) (green foxtail [13]) | effect on barnyard grass (H) (barnyard grass [14]) | effect on wild oat (I) (wild oat [15]) | effect on blackgrass (J) (blackgrass [16]) | further results
1 | C=Cc1ccc(-c2sc3ccc(F)cc3c2-c2c(OC(=O)CCC)c(C)nn(C)c2=O)cc1 [2-019] | 5 (Herbicidal rate of 90% or more (almost completely withered)) | 3 (Herbicidal rate of 40% or more and less than 70%) | 4 (Herbicidal rate of 70% or more and less than 90%) | 0 (Herbicidal rate of 5% or less (almost no effect)) | 2 (Herbicidal rate of 20% or more and less than 40%) | 0 (Herbicidal rate of 5% or less (almost no effect)) | 0 (Herbicidal rate of 5% or less (almost no effect)) | 0 (Herbicidal rate of 5% or less (almost no effect)) | 5 (Herbicidal rate of 90% or more (almost completely withered)) | 1 (Herbicidal rate of 5% or more and less than 20%) | 0 (Herbicidal rate of 5% or less (almost no effect)) | 5 (Herbicidal rate of 90% or more (almost completely withered)) | 3 (Herbicidal rate of 40% or more and less than 70%) | 4 (Herbicidal rate of 70% or more and less than 90%) | 5 (Herbicidal rate of 90% or more (almost completely withered)) | 4 (Herbicidal rate of 70% or more and less than 90%) | 5 (Herbicidal rate of 90% or more (almost completely withered)) | 5 (Herbicidal rate of 90% or more (almost completely withered)) | 4 (Herbicidal rate of 70% or more and less than 90%) | 0 (Herbicidal rate of 5% or less (almost no effect)) | effect on Italian ryegrass (K) (Italian ryegrass [17]): 3 (Herbicidal rate of 40% or more and less than 70%); effect on windgrass (L) (windgrass [18]): 4 (Herbicidal rate of 70% or more and less than 90%); effect on velvetleaf (M) (velvetleaf [19]): 5 (Herbicidal rate of 90% or more (almost completely withered)); effect on lambsquarters (O) (lambsquarters [20]): 5 (Herbicidal rate of 90% or more (almost completely withered)); effect on persian speedwell (R) (persian speedwell [21]): 5 (Herbicidal rate of 90% or more (almost completely withered))
2 | Cc1nn(C)c(=O)c(-c2c(-c3ccc(OC(F)(F)F)cc3)sc3ccc(F)cc23)c1O [2-045] | 5 (Herbicidal rate of 90% or more (almost completely withered)) | 2 (Herbicidal rate of 20% or more and less than 40%) | 5 (Herbicidal rate of 90% or more (almost completely withered)) | 3 (Herbicidal rate of 40% or more and less than 70%) | 4 (Herbicidal rate of 70% or more and less than 90%) | 1 (Herbicidal rate of 5% or more and less than 20%) | 0 (Herbicidal rate of 5% or less (almost no effect)) | 0 (Herbicidal rate of 5% or less (almost no effect)) | 5 (Herbicidal rate of 90% or more (almost completely withered)) | 0 (Herbicidal rate of 5% or less (almost no effect)) | 4 (Herbicidal rate of 70% or more and less than 90%) | 4 (Herbicidal rate of 70% or more and less than 90%) | 5 (Herbicidal rate of 90% or more (almost completely withered)) | 5 (Herbicidal rate of 90% or more (almost completely withered)) | 5 (Herbicidal rate of 90% or more (almost completely withered)) | 0 (Herbicidal rate of 5% or less (almost no effect)) | 5 (Herbicidal rate of 90% or more (almost completely withered)) | 5 (Herbicidal rate of 90% or more (almost completely withered)) | 0 (Herbicidal rate of 5% or less (almost no effect)) | 0 (Herbicidal rate of 5% or less (almost no effect)) | effect on Italian ryegrass (K) (Italian ryegrass [17]): 5 (Herbicidal rate of 90% or more (almost completely withered)); effect on windgrass (L) (windgrass [18]): 5 (Herbicidal rate of 90% or more (almost completely withered)); effect on velvetleaf (M) (velvetleaf [19]): 5 (Herbicidal rate of 90% or more (almost completely withered)); effect on lambsquarters (O) (lambsquarters [20]): 5 (Herbicidal rate of 90% or more (almost completely withered)); effect on persian speedwell (R) (persian speedwell [21]): 5 (Herbicidal rate of 90% or more (almost completely withered))
